Test results: patent US12410419B2, “Use of enzyme that cleaves both alpha- and beta- 1,4-glycosidic bonds” (Korea University Research and Business Foundation, priority 2019, dated 2025)

Key:
[1] = molecular target: Vibrio sp. strain EJY3 α-L-fucosidase VeFUC (VEJY3_11310, UniProt H2IHW9.1), wild type, SEQ ID NO: 1 (Vibrio sp. EJY3, UniProt A0ACD6BAZ0); assay: Kinetic parameters of VeFUC for pNP-α-L-Fuc; type: biochemical; settings: Table 1, Present invention
Experimental: Genomic DNA of Vibrio sp. strain EJY3 for cloning a gene encoding VeFUC was prepared as follows: Vibrio sp. strain EJY3 was cultured in a minimum medium consisting of 23 g/L Instant Ocean Sea Salt (Aquarium Systems, Mentor, OH, USA), 50 mM Tris-HCl (pH 7.4), 2 g/L glucose, 1 g/L yeast extract and 0.5 g/L ammonium chloride at 303 K and 200 rpm for 18 hours. The genomic DNA was extracted from a culture using the DNeasy Blood & Tissue Kit (Qiagen, Valencia, CA, USA) according to the manufacturer's protocol. A target gene, VEJY3_11310 (UniProt accession no. H2IHW9.1) was amplified by PCR using the following primers. The underlined parts are BamHI and XhoI restriction enzyme sites; […]
(§1) Recombinant E. coli loaded with the pET21a-VeFUC plasmid was grown at 310 K and 200 rpm until an absorbance measured at 600 nm in a culture Luria-Bertani (LB) broth containing 100 mg L^−1 ampicillin reached 0.6. […] The concentrated enzyme solution was analyzed by bicinchoninic acid (BCA) protein analysis (Thermo Fisher Scientific, Waltham, MA) and 12% (w/v) SDS-PAGE gel electrophoresis to determine the concentration, size and purity of the target protein.
(§2) The reaction was terminated by adding 500 μl of 1 M sodium carbonate thereto, and the absorbance of the reaction mixture was quantified by spectrophotometry at 405 nm. […]

[2] = system: BT_2970 bacterial fucosidase, B. subtilis thetaiotaomicron; settings: Table 1; Sakurama 2012; cited from earlier work
[3] = system: BT_2970 bacterial fucosidase; settings: Table 1; Sakurama 2012; cited from earlier work
[4] = system: AlfA bacterial fucosidase, Lactobacillus casei; settings: Table 1; Rodriguez-Diaz 2011; cited from earlier work
[5] = system: AlfB bacterial fucosidase, L. casei; parameters: Vmax: unit not given here; settings: Table 1; Rodriguez-Diaz 2011; cited from earlier work
[6] = system: AlfC bacterial fucosidase, L. casei; parameters: Vmax: unit not given here; settings: Table 1; Rodriguez-Diaz 2011; cited from earlier work
[7] = system: aLfuk1 bacterial fucosidase; settings: Table 1; Benesova 2013; cited from earlier work
[8] = system: TM0306 bacterial fucosidase, T. maritima; settings: Table 1, Sulzenbacher 2004, cited from earlier work
[9] = system: TfFuc1 bacterial fucosidase, Tannerella forsythia; settings: Table 1; Megson 2015; cited from earlier work
[10] = system: XCC2888 bacterial fucosidase, Xanthomonas campestris; settings: Table 1, Dupoiron 2015, cited from earlier work
[11] = system: Alf1_Wf bacterial fucosidase, Wenyingzhuangia fucanilytica; settings: Table 1; Dong 2017; cited from earlier work
[12] = substrate: C[C@@H]1O[C@@H](Oc2ccc([N+](=O)[O-])cc2)[C@@H](O)[C@H](O)[C@@H]1O; assay: Kinetic parameters of VeFUC for pNP-α-L-Fuc; type: biochemical, Vibrio sp. strain EJY3; settings: other: text, 313 K, 10 mM sodium acetate buffer (pH 6.0), Lineweaver-Burk plot, 40.0 °C
Experimental: Genomic DNA of Vibrio sp. strain EJY3 for cloning a gene encoding VeFUC was prepared as follows: Vibrio sp. strain EJY3 was cultured in a minimum medium consisting of 23 g/L Instant Ocean Sea Salt (Aquarium Systems, Mentor, OH, USA), 50 mM Tris-HCl (pH 7.4), 2 g/L glucose, 1 g/L yeast extract and 0.5 g/L ammonium chloride at 303 K and 200 rpm for 18 hours. The genomic DNA was extracted from a culture using the DNeasy Blood & Tissue Kit (Qiagen, Valencia, CA, USA) according to the manufacturer's protocol. A target gene, VEJY3_11310 (UniProt accession no. H2IHW9.1) was amplified by PCR using the following primers. The underlined parts are BamHI and XhoI restriction enzyme sites;
Recombinant proteins were purified using a HisTrap column (GE Healthcare, Piscataway, NJ, USA) by adding sequences encoding 6 histidines to the reverse primer. A PCR product was treated with BamHI and XhoI restriction enzymes and subsequently ligated to a pET-21a plasmid (Novagen, Darmstadt, Germany) to construct a PET21a-VeFUC plasmid.
as §1, §2
In order to measure the kinetic parameters of VeFUC for pNP-α-L-Fuc, enzymatic reactions were performed at different concentrations of pNP-α-L-Fuc in a range of 0.109 to 0.875 mM under the same conditions described above. Vmax, Km and kcat, which are enzyme kinetic parameters of VeFUC were measured from a Lineweaver-Burk plot. […]

Question: What does the source list for `C[C@@H]1O[C@@H](Oc2ccc([N+](=O)[O-])cc2)[C@@H](O)[C@H](O)[C@@H]1O` [pNP-α-L-Fuc, p-nitrophenyl-α-L-fucopyranoside]?
Answer: Vmax [1]: 24.8 ± 0.9; Kcat ([1]; in 1/s): 4.81 ± 1.8; Km [2]: 1500 µM; Kcat [3]: 1.3 s⁻¹; Km [4]: 270 µM; Km [5]: 2900 µM; Vmax [5]: 6; Km [6]: 5300 µM; Vmax [6]: 22.2; Km [7]: 440 ± 20 µM; Km [8]: 34 ± 2 µM; Kcat ([8]; in 1/s): 5.4 ± 0.2; Km [9]: 670 ± 200 µM; Vmax [9]: 20.4; Km [10]: 700 ± 100 µM; Kcat ([10]; in 1/s): 6.1 ± 2.0; Kcat [11]: 5.44 s⁻¹; Km [11]: 3300 ± 420 µM; Vmax [11]: 4.75

B1: Vibrio sp. strain EJY3 α-L-fucosidase VeFUC (VEJY3_11310, UniProt H2IHW9.1), wild type, SEQ ID NO: 1 (Vibrio sp. EJY3) (protein)
chain: MTKPTAGELTGTSSQATSQLDNRNAFTGVSKQGLNRWKKNTFGMFIHWGLYCHRDLAGYYQGQYYDIISEWLPHFARIPMRDYKEYASDFNPSEFDADQVTALAKTAGMNYMVVTAKHHDGFAMYHSPSHPFNITDATPFKRDPVAELSQSCRHKDLDFGLYYSHVIDWENENAVSKAPNDWDFNPDQANYQEYWNNKCLPQVNELLEQYGDLCSLWFDMGGFDVQEEADHVRRIGELMALIRKKQPDAVVNSRVTAPECEYQLDWDIKTGHDNYMEPLYIKPYYWEGIATSNDNWGYSRNDNNTKSSKDLINQLCSVVSRGGNFLLNITLDHNGRIPQSLVRLLSEIGQWMQVNQEAVIDTEATPLQTGFNWGVVTHRPATNKLYLHVQRQPEQNVICLHSLNNRIKQVRLLDNQIKGHVSYLQKTHTDTGITASTLNLQLGHNYDRMPLVIELEYDGELDINPIVHQDRLAKVRLDTLNIAHFDPEKLTYRWTFQIQSPGRFALDLVSLETMHHKDPQWVHNGKTGRISCGGQSWEFELNLDKTDTNDAQVPWKNIHSRLGELHFPQAGEYTLEFSELPLAIDQSEKYGQDYINLEYLQLGPRLA
Question: For B1, which Km [12] is on record?
Answer: The Km was 6340 ± 480 µM.

Question: And the Vmax [12]?
Answer: The Vmax was 24.8±0.9 U mg^−1 protein.

Question: What about the kcat [12] of the same molecule?
Answer: Its kcat is 4.81 ± 1.8 s⁻¹.
